# Experimental data published in PMC9500755, “Albumin-Mediated Size Exclusion Chromatography: The Apparent Molecular Weight of PSMA Radioligands as Novel Parameter to Estimate Their Blood Clearance Kinetics” (Pharmaceuticals, 2022).
# Several values for one entry are separate records, joined by “and”; a condition that tells them apart may be missing. Identical values can stand only once.
# Experiments:
# [1] = Calculated glomerular sieving coefficients (GSCcalc) from MWapp,norm.; conditions: from MWapp,norm. via sigmoidal fit of MW vs GSC of 12 human plasma proteins
# Source text: Therefore, when comparing the MWapp,norm. of different radioligands, not only their relative difference but also the absolute values of MWapp,norm. are of importance. […] These GSCcalc determined for all the PSMA radioligands (Table 2, Figure 5) inherently account for the exponential nature of the relationship between their albumin-mediated MWapp,norm. and MW-dependent GF and could, therefore, be a useful parameter to estimate differences in blood clearance by means of GF. The GSC is defined as the ratio of a compound’s concentration in the glomerular filtrate to that in the blood; thus, a GSC of 1 represents unhindered filtration through the capillary membrane in the glomerulus, while a lower GSC corresponds to a restricted filtration and, thus, a prolonged circulatory half-life. […] As an example, a GSCcalc of 0.408 was determined for rhPSMA-7.3, while an almost three-fold smaller GSCcalc of 0.138 was determined for rhPSMA-7.4. […] This would constitute a dramatic physiological effect that, in its extent, could not be predicted only based on subtle differences in molecular structure and other conventionally determined in vitro parameters. We, therefore, believe that the MWapp,norm. and GSCcalc obtained by AMSEC could be important parameters that, already at the preclinical stage of development, could help in the selection of promising therapeutic radioligands with pharmacokinetic profiles suitable for patient application.
# A sigmoidal fit of molecular weights (MWs, in kDa) and corresponding glomerular sieving coefficients (GSCs) of 12 human plasma proteins (data taken from Norden et al.) was executed using OriginPro software. A dose-response model based on Equation (6) was applied:(6) GSC=A1+A2−A1/1+10^(LOGx0−MW)·p.
# The values of bottom asymptote A1 and top asymptote A2 were set to 4.2∙10^−5 (GSC of IgG, data taken from Norden et al.) and 1 (equaling complete sieving), respectively. Curve fitting gave the center parameter LOGx0 = 19.36833 and the Hill slope p = −0.12108. GSCcalc values were calculated via implementation of fitting parameters and the experimentally determined MWapp,norm. in Equation (6).
# [2] = target: T1, human serum albumin (HSA) (Homo sapiens, UniProt P02768); test: Albumin-mediated size exclusion chromatography (AMSEC); format: in vitro ADME; conditions: for tR,AMSEC (retention time in AMSEC run): 177Lu-labeled ligand, mobile phase 700 µM HSA in PBS pH 7.4, Superdex 75 Increase, corrected for detector offset, normalized to column 1; for Retention factor k: fraction of time the radioligand is complexed to HSA during the AMSEC run, Equation (2); for MWapp,raw (raw apparent molecular weight): from tR,AMSEC by column calibration, 700 µM HSA in PBS pH 7.4; for MWapp,norm. (normalized apparent molecular weight): from tR,norm. by column calibration; for tR,norm. (normalized retention time): normalized with tR,blank, tR,HSA and tR,acetone, Equation (5); for MWapp,raw in percentage of the MWapp,raw of rhPSMA-7.3: rhPSMA-7.3 = 100%
# T1 construct: purchased Biowest, Nuaillé, France
# T1 sequence (P02768 25-609): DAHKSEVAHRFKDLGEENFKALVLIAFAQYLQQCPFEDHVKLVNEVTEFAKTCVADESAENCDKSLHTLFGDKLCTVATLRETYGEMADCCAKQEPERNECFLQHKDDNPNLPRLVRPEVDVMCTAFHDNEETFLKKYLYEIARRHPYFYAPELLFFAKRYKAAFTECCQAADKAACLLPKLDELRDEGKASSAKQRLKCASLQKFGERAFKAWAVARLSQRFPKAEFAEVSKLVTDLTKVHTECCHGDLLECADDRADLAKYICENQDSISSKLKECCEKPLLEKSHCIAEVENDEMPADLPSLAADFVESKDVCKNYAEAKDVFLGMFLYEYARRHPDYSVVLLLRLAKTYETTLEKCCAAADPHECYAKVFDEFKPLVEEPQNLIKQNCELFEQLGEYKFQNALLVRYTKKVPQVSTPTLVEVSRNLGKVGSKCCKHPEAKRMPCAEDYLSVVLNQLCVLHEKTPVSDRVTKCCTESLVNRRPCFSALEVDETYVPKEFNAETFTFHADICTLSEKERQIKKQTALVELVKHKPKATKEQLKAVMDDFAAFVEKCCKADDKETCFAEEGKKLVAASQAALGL
# Method: All size exclusion chromatographic (SEC) experiments were carried out using the above-mentioned HPLC system equipped with a Superdex 75 Increase 10/300 GL gel filtration size exclusion column (fractionation range 70–3 kDa, GE Healthcare, Uppsala, Sweden). Eluents at room temperature, a constant flow rate of 0.8 mL/min, and an acquisition time of 35 min were generally applied. The column was calibrated as recommended by the manufacturer using a commercially available set of proteins (Gel Filtration LMW Calibration Kit, GE Healthcare, Buckinghamshire, UK). Retention times of calibration proteins and calculated calibration parameters are given in the Supplementary Materials (Table S3). UV signal detection occurred at 280 nm.
# All retention times of radio signals were corrected for the offset between the UV-vis detector and radio-detector (Δt = 0.084 min). Throughout the development of the AMSEC method, three gel filtration columns of the same type were used for experiments (most data were acquired using column 1). As calculations were based on absolute empirical retention times that inherently differed slightly from column to column, all retention times determined on column 2 and column 3 were mathematically converted to an equivalent retention time on column 1 using the columns’ calibration parameters. A detailed description of these calculations is provided in the Supplementary Materials.
# All numerical retention times explicitly given in running text or tables and plotted in diagrams are already corrected for the offset between UV-vis and radio-detector and, if initially determined on columns 2 or 3, converted to the equivalent retention time on column 1 (for detailed information, see Equations (S1) and (S2) and Table S1 in the Supplementary Materials).
# AMSEC runs were executed with a solution of HSA (Biowest, Nuaillé, France) in PBS (pH 7.4) at physiological concentration (700 µM) as a mobile phase. Upon injection of approximately 1.0 MBq (5–10 µL) of a radioligand, the elution profile was monitored via radioactivity detection, and the retention times of observed radiopeaks (tR,AMSEC) were determined via semi-automated peak integration. By means of calibration, retention times were translated into a ligand-specific raw apparent molecular weight (MWapp,raw) as a parameter to assess the extent of HSA binding (for calculation, see Equation (S6) in the Supplementary Materials). rhPSMA-7.3 served as an internal standard during AMSEC studies and was co-evaluated whenever new data were collected to assess the reproducibility of the method (n = 14).
# For reference purposes, conventional SEC runs of HSA (100 µL, 3 mg/mL) and acetone (100 µL, 2% in PBS pH 7.4) with PBS (pH 7.4) as a mobile phase were executed. The retention time of HSA (tR,HSA) corresponded to the maximal MWapp,raw, theoretically observable in AMSEC runs in the case of continuous binding of a radioligand to HSA (equivalent to 100% HSA binding). The retention time of acetone (tR,acetone) served as a reference for a ligand with no interaction with HSA in AMSEC runs (equivalent to 0% HSA binding) and an actual physical molecular weight below the column fractionation range (this was the case for all investigated radioligands).
# (§1) MWapp,raw values determined as described in Section 3.3.1. were normalized in order to account for ligand-specific influences on experimentally determined retention times and to establish quantitative comparability of the obtained MWapp,norm. values. The normalization was based on a SEC run (referred to as blank run) of a radioligand executed in analogy to the AMSEC run but using PBS (pH 7.4) without HSA as a mobile phase. The determined retention time tR,blank, together with the retention time tR,AMSEC from the AMSEC run, tR,HSA, and tR,acetone determined in Section 3.3.1, were used to calculate a normalized retention time tR,norm. for every radioligand (for formulae and details on the calculation, see Section 2. Results and Discussion). […]
# [3] = Blank SEC run of radioligand (PBS pH 7.4 without HSA); format: physicochemical
# Method: To validate this hypothesis, blank runs (PBS pH 7.4 as mobile phase) of the radioligands on the SEC column were performed. The resulting retention times were termed tR,blank and represent the ligand-specific retention time that would correspond to 0% HSA binding in the AMSEC experiment. […] We concluded that unspecific electrostatic interactions between the highly negatively charged radioligand and the agarose/dextran-based matrix of the superdex column are present and lead to an elution prior to the expected cut-off volume. Consequently, apart from the radioligand’s binding to HSA in the AMSEC run, the unspecific interactions with the column matrix contribute to the determined MWapp,raw, thus hampering its informative value. […]
# as §1, with “The normalization was based on a SEC run (referred to as blank run) of a radioligand executed in analogy to the AMSEC run but using PBS (pH 7.4) without HSA as a mobile phase.” left out
# [4] = parameters: method as in PMID 34531260; conditions: 177Lu-labeled, intrapatient comparison vs PSMA-I&T; cited from earlier work
SMILES,GSCcalc (calculated glomerular sieving coefficient) [1],"tR,AMSEC (retention time in AMSEC run) [2]",Retention factor k [2],"MWapp,raw (raw apparent molecular weight) [2]","MWapp,norm. (normalized apparent molecular weight) [2]","tR,norm. (normalized retention time) [2]","tR,blank (retention time in blank run) ([3]; PBS pH 7.4 without HSA as mobile phase, corresponds to 0% HSA binding) [min]","Relative reduction in MWapp,norm. compared to MWapp,raw ([2]; effect of normalization)","MWapp,raw in percentage of the MWapp,raw of rhPSMA-7.3 [2]","MWapp,norm. higher than that of the stereoisomer ([2]; rhPSMA-7.2 vs rhPSMA-7.1, rhPSMA-10.1 vs rhPSMA-10.2) [%]",tumor dose relative to PSMA-I&T [4] [fold],"MW mathematically corresponding to tR,blank ([3]; PBS pH 7.4 without HSA) [kDa]","mean MWapp,raw ([2]; mean ± SD, n = 14) [kDa]"
CC(C)(C)[Si](F)(c1ccc(C(=O)NC[C@@H](NC(=O)CC[C@H](C(=O)O)N2CCN(CC(=O)[O-])CCN(CC(=O)[O-])CCN(CC(=O)[O-])CC2)C(=O)N[C@H](CCCCNC(=O)CCC(=O)NCCC[C@@H](NC(=O)CC[C@H](NC(=O)N[C@@H](CCC(=O)O)C(=O)O)C(=O)O)C(=O)O)C(=O)O)cc1)C(C)(C)C.[177Lu+3] [rhPSMA-7.1],0.655,15.240 min,0.613,26.5 kDa,17.1 kDa,16.824 min,–,–,–,–,–,–,–
CC(C)(C)[Si](F)(c1ccc(C(=O)NC[C@H](NC(=O)CN2CCN(CC(=O)[O-])CCN(CC(=O)[O-])CCN(CC(=O)[O-])CC2)C(=O)N[C@H](CCCCNC(=O)CCC(=O)NCCC[C@@H](NC(=O)CC[C@H](NC(=O)N[C@@H](CCC(=O)O)C(=O)O)C(=O)O)C(=O)O)C(=O)O)cc1)C(C)(C)C.[177Lu+3] [rhPSMA-10.2],0.846,15.908 min,0.543,22.0 kDa,13.2 kDa,17.736 min,–,–,–,–,–,–,–
"O=C(O)CC[C@H](NC(=O)N[C@@H](CCCCNC(=O)CCCCCCC(=O)NCCCC[C@@H](NC(=O)[C@@H](Cc1ccccc1)NC(=O)[C@@H](Cc1ccc(O)c(I)c1)NC(=O)CCC(C(=O)O)N1CCN(CC(=O)O)CCN(CC(=O)O)CCN(CC(=O)O)CC1)C(=O)O)C(=O)O)C(=O)O (stereo partly shown) (177Lu complex, metal not drawn) [PSMA-I&T, reference compound]",–,20.983 min,0.0013 and 0.001,5.4 kDa,1.9 kDa,24.792 min,20.995,around 60%,approximately 18%,–,–,–,–
CC(C)(C)[Si](F)(c1ccc(C(=O)NC[C@H](NC(=O)CC[C@H](C(=O)O)N2CCN(CC(=O)[O-])CCN(CC(=O)[O-])CCN(CC(=O)[O-])CC2)C(=O)N[C@H](CCCCNC(=O)CCC(=O)NCCC[C@@H](NC(=O)CC[C@H](NC(=O)N[C@@H](CCC(=O)O)C(=O)O)C(=O)O)C(=O)O)C(=O)O)cc1)C(C)(C)C.[177Lu+3] [rhPSMA-7.2],0.344,14.564 min,0.680,32.0 kDa,21.7 kDa,15.962 min,–,–,–,27,–,–,–
CC(C)(C)[Si](F)(c1ccc(C(=O)NC[C@H](NC(=O)CC[C@@H](C(=O)O)N2CCN(CC(=O)[O-])CCN(CC(=O)[O-])CCN(CC(=O)[O-])CC2)C(=O)N[C@H](CCCCNC(=O)CCC(=O)NCCC[C@@H](NC(=O)CC[C@H](NC(=O)N[C@@H](CCC(=O)O)C(=O)O)C(=O)O)C(=O)O)C(=O)O)cc1)C(C)(C)C.[177Lu+3] [rhPSMA-7.4],0.138,14.143 min,0.729,36.0 kDa,26.0 kDa,15.316 min,–,–,~120%,–,–,–,–
CC(C)(C)[Si](F)(c1ccc(C(=O)NC[C@@H](NC(=O)CC[C@@H](C(=O)O)N2CCN(CC(=O)[O-])CCN(CC(=O)[O-])CCN(CC(=O)[O-])CC2)C(=O)N[C@H](CCCCNC(=O)CCC(=O)NCCC[C@@H](NC(=O)CC[C@H](NC(=O)N[C@@H](CCC(=O)O)C(=O)O)C(=O)O)C(=O)O)C(=O)O)cc1)C(C)(C)C.[177Lu+3] [rhPSMA-7.3],0.408,14.722 min and 14.722 ^3 min,0.667 ^1,30.6 ^3 kDa,20.7 kDa and 20.7 ^1 kDa,16.125 ^1 min,–,–,–,–,2.4,6.0,30.6
